These compounds were tested against Prothrombin (Homo sapiens, UniProt P00734) (assay: In vitro inhibitory activity against thrombin).

Row | Ki [µM] | Structure (SMILES)
1 | > 50 | N=C(N)c1ccc(NC(=O)NCC(=O)NCc2cccc(Br)c2)cc1
2 | 10.1 | N=C(N)c1ccc(NC(=O)NCC(=O)NCc2ccc(Cl)c(Cl)c2)cc1
3 | > 50 | C[C@@H](NC(=O)CNC(=O)Nc1ccc(C(=N)N)cc1)c1ccccc1
4 | 15.9 | C[C@H](NC(=O)CNC(=O)Nc1ccc(C(=N)N)cc1)c1cccc(Br)c1
5 | 18.2 | COc1cccc([C@H](C)NC(=O)CNC(=O)Nc2ccc(C(=N)N)cc2)c1

More lines, now with the values behind:

Row | Structure (SMILES) | Ki [µM]
6 | CC(NC(=O)CNC(=O)Nc1ccc(C(=N)N)cc1)c1ccc(C(F)(F)F)cc1C(F)(F)F (stereo not given) | > 100
7 | C[C@H](NC(=O)CNC(=O)Nc1ccc(C(=N)N)cc1)c1ccc2c(c1)OCCO2 | 11.2
8 | CC(NC(=O)CNC(=O)Nc1ccc(C(=N)N)cc1)c1ccc2c(c1)NC(=O)CO2 (stereo not given) | 16.4
9 | C[C@H](NC(=O)CNC(=O)Nc1ccc(C(=N)N)cc1)c1ccccc1 | 50.7
10 | CC(C)(NC(=O)CNC(=O)Nc1ccc(C(=N)N)cc1)c1ccccc1 | > 50

These compounds were tested against Coagulation factor X (Homo sapiens, UniProt P00742) (assay: In vitro inhibitory activity against […] coagulation factor (fXa)).
Sequence of Coagulation factor X (P00742 41-179 limits assumed): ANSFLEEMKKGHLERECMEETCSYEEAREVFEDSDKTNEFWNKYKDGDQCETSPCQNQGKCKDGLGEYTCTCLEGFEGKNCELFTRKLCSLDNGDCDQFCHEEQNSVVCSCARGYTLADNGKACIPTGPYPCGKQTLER
Sequence of Coagulation factor X (P00742 235-488 limits assumed): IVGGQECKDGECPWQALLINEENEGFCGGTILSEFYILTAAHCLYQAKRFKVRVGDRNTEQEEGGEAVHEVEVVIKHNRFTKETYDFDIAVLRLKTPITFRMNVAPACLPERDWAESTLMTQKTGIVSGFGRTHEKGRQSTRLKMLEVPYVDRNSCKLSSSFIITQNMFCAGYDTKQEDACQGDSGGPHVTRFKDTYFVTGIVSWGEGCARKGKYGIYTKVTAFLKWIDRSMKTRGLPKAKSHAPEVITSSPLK

Row | Ki [µM] | Structure (SMILES)
11 | 7.8 | N=C(N)c1ccc(NC(=O)NCC(=O)NCc2cccc(Br)c2)cc1
12 | 14.5 | N=C(N)c1ccc(NC(=O)NCC(=O)NCc2ccc(Cl)c(Cl)c2)cc1
13 | > 10 | C[C@@H](NC(=O)CNC(=O)Nc1ccc(C(=N)N)cc1)c1ccccc1
14 | > 10 | C[C@H](NC(=O)CNC(=O)Nc1ccc(C(=N)N)cc1)c1cccc(Br)c1
15 | > 10 | COc1cccc([C@H](C)NC(=O)CNC(=O)Nc2ccc(C(=N)N)cc2)c1

Further lines, the compound ahead of its results:

Row | Structure (SMILES) | Ki [µM]
16 | CC(NC(=O)CNC(=O)Nc1ccc(C(=N)N)cc1)c1ccc(C(F)(F)F)cc1C(F)(F)F (stereo not given) | > 10
17 | C[C@H](NC(=O)CNC(=O)Nc1ccc(C(=N)N)cc1)c1ccc2c(c1)OCCO2 | > 10
18 | CC(NC(=O)CNC(=O)Nc1ccc(C(=N)N)cc1)c1ccc2c(c1)NC(=O)CO2 (stereo not given) | > 10
19 | C[C@H](NC(=O)CNC(=O)Nc1ccc(C(=N)N)cc1)c1ccccc1 | > 10
20 | CC(C)(NC(=O)CNC(=O)Nc1ccc(C(=N)N)cc1)c1ccccc1 | > 10

Each compound was assayed against T1, Coagulation factor VII (Homo sapiens, UniProt P08709) (assay: In vitro inhibitory activity against coagulation factor VII (fVIIa)).
T1 sequence (P08709 whole entry): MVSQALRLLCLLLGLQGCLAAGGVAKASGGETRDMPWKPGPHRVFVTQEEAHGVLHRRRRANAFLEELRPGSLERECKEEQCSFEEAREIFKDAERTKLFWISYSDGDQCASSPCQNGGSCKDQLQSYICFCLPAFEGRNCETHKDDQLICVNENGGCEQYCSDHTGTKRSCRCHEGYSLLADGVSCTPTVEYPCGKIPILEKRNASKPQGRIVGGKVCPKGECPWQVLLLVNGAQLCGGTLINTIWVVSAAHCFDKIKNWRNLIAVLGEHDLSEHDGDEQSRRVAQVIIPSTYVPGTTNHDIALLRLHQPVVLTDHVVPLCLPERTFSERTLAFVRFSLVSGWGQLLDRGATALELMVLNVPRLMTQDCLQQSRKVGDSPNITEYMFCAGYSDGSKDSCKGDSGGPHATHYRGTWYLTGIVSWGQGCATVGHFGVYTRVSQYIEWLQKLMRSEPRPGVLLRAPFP

Row | Ki [µM] | Structure (SMILES)
21 | 1.51 | N=C(N)c1ccc(NC(=O)NCC(=O)NCc2cccc(Br)c2)cc1
22 | 0.027 | C[C@H](NC(=O)CNC(=O)Nc1ccc(C(=N)N)cc1)c1cccc(Br)c1
23 | 45.8 | C[C@H](NC(=O)Nc1ccc(C(=N)N)cc1)C(=O)NCc1ccc(Cl)c(Cl)c1
24 | 31 | C[C@@H](NC(=O)CNC(=O)Nc1ccc(C(=N)N)cc1)c1cccc(Br)c1
25 | 0.035 | COc1cccc([C@H](C)NC(=O)CNC(=O)Nc2ccc(C(=N)N)cc2)c1

Further lines, the compound ahead of its results:

Row | Structure (SMILES) | Ki [µM]
26 | CC(NC(=O)CNC(=O)Nc1ccc(C(=N)N)c(F)c1)c1ccc2c(c1)NC(=O)CO2 (stereo not given) | 0.47
27 | C[C@H](NC(=O)C(NC(=O)Nc1ccc(C(=N)N)cc1)c1ccccc1)c1cccc(Br)c1 (stereo not given in full) | 3.2
28 | C[C@H](NC(=O)CNC(=O)Nc1ccc(C(=N)N)cc1)c1ccc2c(c1)OCCO2 | 0.067
29 | C[C@H](NC(=O)CNC(=O)Nc1ccc(C(=N)N)c(Cl)c1)c1cccc(Br)c1 | 3.76
30 | C[C@H](NC(=O)CNC(=O)Nc1ccc(C(=N)N)c(F)c1)c1cccc(Br)c1 | 0.12

Source: ChEMBL document CHEMBL1144973, “Design, synthesis, and structure-activity relationship of a new class of amidinophenylurea-based factor VIIa inhibitors” (Bioorg Med Chem Lett, 2003)
